Patent publication US20190100534A1, “Cephem Compounds with Latent Reactive Groups” (Gladius Pharmaceuticals, Inc., priority 2017, published 2019)

Key:
Type in all cases: cell-based
E. coli J53 Alone = experiment: MIC determination, isogenic E. coli strains; conditions: for MIC: Escherichia coli, J53ALONE, 18 h, read-out: Mimimum Inhibitory Concentrations, J53 Alone; for Mimimum Inhibitory Concentrations, J53 Alone: Table 4-2, CAMH broth, 20 μM Apo-Transferrin, 37° C., 18 hours
Outline: (§1)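 MIC read as the lowest compound level giving a transparent well after 18 h at 37° C. Strains: parent E. coli J53 and isogenic transformants expressing plasmid-borne (pBC-SK(+)) beta-lactamases such as DHA-1; inoculum 0.5 McFarland; CAMH broth plus 20 μM apo-transferrin; compound 64 μg/mL downward, 2-fold dilutions.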

[1] = test system: Isogenic E. coli J58 strain carrying DHA-1; experiment: MIC determination, isogenic E. coli strains; conditions: Escherichia coli, 18 h, read-out: Mimimum Inhibitory Concentrations, DHA-1
Outline: as §1

[2] = test system: Isogenic E. coli J58 strain carrying TEM-26; experiment: MIC determination, isogenic E. coli strains; conditions: Escherichia coli, 18 h, read-out: Mimimum Inhibitory Concentrations, TEM-26
Outline: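 E. coli J53 carried a pBC-SK(+) plasmid expressing TEM-26 β-lactamase. Compounds were serially halved from […] in CAMH broth containing 20 μM apo-transferrin, inoculated from a 0.5 McFarland culture and held overnight (18 h, 37° C); MIC read as the lowest concentration without visible growth.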

[3] = test system: Isogenic E. coli J58 strain carrying CTX-M-14; experiment: MIC determination, isogenic E. coli strains; conditions: Escherichia coli, 18 h, read-out: Mimimum Inhibitory Concentrations, CTX-M-14
Outline: (§2)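 Isogenic E. coli J53 carrying plasmid-encoded CTX-M-14 or CTX-M-15 (ampicillin-selected), standardized to 0.08-0.1 OD600, incubated overnight (18 h, 37° C.) in CAMH broth plus 20 μM apo-transferrin over 2-fold compound dilutions starting at 64 μg/mL. Lowest concentration with no visible growth recorded as MIC.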

[4] = test system: Isogenic E. coli J58 strain carrying CTX-M-15; experiment: MIC determination, isogenic E. coli strains; conditions: Escherichia coli, 18 h, read-out: Mimimum Inhibitory Concentrations, CTX-M-15
Outline: as §2

[5] = test system: Isogenic E. coli J58 strain carrying KPC-2; experiment: MIC determination, isogenic E. coli strains; conditions: Escherichia coli, 18 h, read-out: Mimimum Inhibitory Concentrations, KPC-2
Outline: (§3)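 Strain: E. coli J53 electroporated with a pBC-SK(+) plasmid encoding the KPC enzyme, selected on ampicillin. Twofold dilutions ([…]) were made in CAMH broth containing 20 μM apo-transferrin and inoculated at 0.5 McFarland. After overnight (18 h) growth at 37 °C, MIC was read as the lowest concentration with no visible growth.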

[6] = test system: Isogenic E. coli J58 strain carrying KPC-3; experiment: MIC determination, isogenic E. coli strains; conditions: Escherichia coli, 18 h, read-out: Mimimum Inhibitory Concentrations, KPC-3
Outline: as §3

[7] = test system: Isogenic E. coli J58 strain carrying NDM-1; experiment: MIC determination, isogenic E. coli strains; conditions: Escherichia coli, 18 h, read-out: Mimimum Inhibitory Concentrations, NDM-1
Outline: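 Broth microdilution was run in cation-adjusted Mueller-Hinton broth supplemented with 20 μM apo-transferrin, using a 64 μg/mL top concentration diluted twofold. The inoculum was NDM-1-expressing E. coli J53 (pBC-SK(+) plasmid) at 0.5 McFarland. After overnight incubation (18 h, 37° C), the lowest compound concentration preventing visible growth was recorded as the MIC.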

[8] = test system: Isogenic E. coli J58 strain carrying VIM-2; experiment: MIC determination, isogenic E. coli strains; conditions: for MIC: Escherichia coli, 18 h, read-out: Mimimum Inhibitory Concentrations, VIM-2; for MICs for an E. coli strain carrying the gene for carbapenemase VIM-1, in words: review of Tables 4-1 and 4-2
Outline: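 Broth microdilution in cation-adjusted Mueller-Hinton with 20 μM apo-transferrin, compound serially halved from 64 μg/mL, read by eye after 18 h at 37 °C as lowest clear well. Inoculum: VIM-2-expressing E. coli J53 (pBC-SK(+) plasmid), adjusted to 0.5 McFarland.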

[9] = test system: Pseudomonas aeruginosa PA (RR-2); experiment: MIC determination; conditions: Pseudomonas aeruginosa; PA (RR-2); CAMH broth, 20 μM Apo-Transferrin, 37° C., 18 hours; read-out: Minimum Inhibitory Concentrations, PA (RR-2)
Protocol: (§4) Sterile technique was used throughout these experiments. Suspensions of organisms were removed from storage (−80° C.) and partially thawed. Partially thawed organisms (1 μL) were inoculated into 3 mL sterile LB Broth in a sterile culture tube and capped, then cultured at 37° C. with shaking for 4-5 hours until the optical density at 600 nm (OD600) was greater than 0.1 on a single beam spectrophotometer.
(§5) The concentration of organisms was adjusted to 0.08-0.1 OD600 (0.5 McFarland units) by dilution with sterile cation-adjusted Meuller-Hinton (CAMH) broth. The suspensions were used within 30 minutes of preparation.
(§6) A stock solution was made of each test compound by measuring 6.4 mg of the compound on an analytical balance and dissolving it in DMSO (1 mL) to get a transparent solution. The solutions were stored at −20° C. and thawed prior to use.
(§7) Sterile CAMH broth (200 μL) containing 20 μM Apo-Transferrin was pipetted into the first row of 8 columns of a sterile, round-bottomed, transparent, 96-well microplate using an 8-channel pipette equipped with sterile tips. One hundred μL was pipetted into the wells of the remaining 11 rows.
(§8) With an 8-channel pipette equipped with sterile tips, 100 μL of the first row solution was transferred to the second row and mixed. The process was repeated for the second to third rows and continued through row 11. One hundred μL from row 11 was removed and discarded so that all 12 rows contained 100 μL. Row 12 contained no compound and rows 1-11 contained 64, 32, 16, 8, 4, 2, 1, 0.5, 0.25, 0.125, […] of a given compound.
(§9) Inoculant suspensions (0.5 μL) were added to the 12 wells of each column. The plates were then covered and incubated at 37° C. overnight for 18 hours.
(§10) For each organism the MIC was determined by identifying the transparent well with the lowest test compound concentration.

[10] = test system: Pseudomonas aeruginosa PA (URMC-2); experiment: MIC determination; conditions: Pseudomonas aeruginosa; PA (URMC-2); CAMH broth, 20 μM Apo-Transferrin, 37° C., 18 hours; read-out: Minimum Inhibitory Concentrations, PA (URMC-2)
Protocol: as §4, §5, §6, §7, §8, §9, §10

[11] = test system: Pseudomonas aeruginosa PA (URMC-3); experiment: MIC determination; conditions: Pseudomonas aeruginosa; PA (URMC-3); CAMH broth, 20 μM Apo-Transferrin, 37° C., 18 hours; read-out: Minimum Inhibitory Concentrations, PA (URMC-3)
Protocol: as §4, §5, §6, §7, §8, §9, §10

[12] = test system: Pseudomonas aeruginosa PA-RR-(98023895); experiment: MIC determination; conditions: Pseudomonas aeruginosa; PA-RR-(98023895); CAMH broth, 20 μM Apo-Transferrin, 37° C., 18 hours; read-out: Minimum Inhibitory Concentrations, PA-RR-(98023895)
Protocol: as §4, §5, §6, §7, §8, §9, §10

[13] = test system: Pseudomonas aeruginosa PA-RR-(G7294437); experiment: MIC determination; conditions: Pseudomonas aeruginosa; PA-RR-(G7294437); CAMH broth, 20 μM Apo-Transferrin, 37° C., 18 hours; read-out: Minimum Inhibitory Concentrations, PA-RR-(G7294437)
Protocol: as §4, §5, §6, §7, §8, §9, §10

[14] = test system: Pseudomonas aeruginosa PA-RR-(G7304100); experiment: MIC determination; conditions: Pseudomonas aeruginosa; PA-RR-(G7304100); CAMH broth, 20 μM Apo-Transferrin, 37° C., 18 hours; read-out: Minimum Inhibitory Concentrations, PA-RR-(G7304100)
Protocol: as §4, §5, §6, §7, §8, §9, §10

[15] = test system: Pseudomonas aeruginosa PA-RR-(G7305586); experiment: MIC determination; conditions: Pseudomonas aeruginosa; PA-RR-(G7305586); CAMH broth, 20 μM Apo-Transferrin, 37° C., 18 hours; read-out: Minimum Inhibitory Concentrations, PA-RR-(G7305586)
Protocol: as §4, §5, §6, §7, §8, §9, §10

[16] = test system: Pseudomonas aeruginosa PA-RR-(purple Fre D); experiment: MIC determination; conditions: Pseudomonas aeruginosa, CAMH broth, 20 μM Apo-Transferrin, 37° C., 18 hours, read-out: Minimum Inhibitory Concentrations, PA-RR-(purple Fre D)
Protocol: as §4, §5, §6, §7, §8, §9, §10

SMILES	MIC (E. coli J53 Alone) [µg/mL]	Mimimum Inhibitory Concentrations, J53 Alone (E. coli J53 Alone) [microgram/mL]	MIC [1] [µg/mL]	MIC [2] [µg/mL]	MIC [3] [µg/mL]	MIC [4] [µg/mL]	MIC [5] [µg/mL]	MIC [6] [µg/mL]	MIC [7] [µg/mL]	MIC [8] [µg/mL]	MIC [9] [µg/mL]	MIC [10] [µg/mL]	MIC [11] [µg/mL]	MIC [12] [µg/mL]	MIC [13] [µg/mL]	MIC [14] [µg/mL]	MIC [15] [µg/mL]	MIC [16] [µg/mL]	MICs for an E. coli strain carrying the gene for carbapenemase VIM-1, in words [8]
C#CC[N+]1(Cc2ccc(C=CC3=C(C(=O)O)N4C(=O)[C@@H](NC(=O)/C(=N\OC(C)(C)C(=O)O)c5csc(N)n5)[C@H]4SC3)cc2)CCc2cc(O)c(O)cc2C1 (mixture of isomers) [Compound 446, 2-(4-((E/Z)-2-((6R,7R)-7-((Z)-2-(2-aminothiazol-4-yl)-2-(((2-carboxypropan-2-yl)oxy)imino)acetamido)-2-carboxy-8-oxo-5-thia-1-azabicyclo[4.2.0]oct-2-en-3-yl)vinyl)benzyl)-6,7-dihydroxy-2-(prop-2-yn-1-yl)-1,2,3,4-tetrahydroisoquinolin-2-ium]	0.13	0.13	0.25	0.25	0.25	0.25	2	1	> 64	0.25	–	–	–	–	–	–	–	–	–
CC(C)(O/N=C(\C(=O)N[C@@H]1C(=O)N2C(C(=O)O)=C(C=Cc3ccc(C[N+]4(C)Cc5c(Cl)c(O)c(O)c(Cl)c5C4)cc3)CS[C@H]12)c1csc(N)n1)C(=O)O (mixture of isomers) [Compound 431, 2-(4-((E/Z)-2-((6R,7R)-7-((Z)-2-(2-aminothiazol-4-yl)-2-(((2-carboxypropan-2-yl)oxy)imino)acetamido)-2-carboxy-8-oxo-5-thia-1-azabicyclo[4.2.0]oct-2-en-3-yl)vinyl)benzyl)-4,7-dichloro-5,6-dihydroxy-2-methylisoindolin-2-ium]	≤ 0.06	≤0.06	1	–	0.13	0.13	–	–	> 64	≤ 0.06	≤ 0.06	≤ 0.06	1	4	≤ 0.06	≤ 0.06	0.5	0.5	low microgram/mL MICs
CC(C)(O/N=C(\C(=O)N[C@@H]1C(=O)N2C(C(=O)O)=C(C=Cc3ccc(C[N+]4(C)Cc5cc(O)c(O)c(Cl)c5C4)cc3)CS[C@H]12)c1csc(N)n1)C(=O)O (mixture of isomers) [Compound 432, 2-(4-((E/Z)-2-((6R,7R)-7-((Z)-2-(2-aminothiazol-4-yl)-2-(((2-carboxypropan-2-yl)oxy)imino)acetamido)-2-carboxy-8-oxo-5-thia-1-azabicyclo[4.2.0]oct-2-en-3-yl)vinyl)benzyl)-4-chloro-5,6-dihydroxy-2-methylisoindolin-2-ium]	≤ 0.06	≤0.06	≤ 0.06	–	≤ 0.06	≤ 0.06	–	–	> 64	≤ 0.06	0.13	0.5	1	4	≤ 0.06	≤ 0.06	1	1	low microgram/mL MICs
CC(C)(O/N=C(\C(=O)N[C@@H]1C(=O)N2C(C(=O)O)=C(C=Cc3ccc(C[n+]4ccc(-c5ccc(O)c(O)c5)cc4)cc3)CS[C@H]12)c1csc(N)n1)C(=O)O (mixture of isomers) [Compound 412, 1-(4-((E/Z)-2-((6R,7R)-7-((Z)-2-(2-aminothiazol-4-yl)-2-(((2-carboxypropan-2-yl)oxy)imino)acetamido)-2-carboxy-8-oxo-5-thia-1-azabicyclo[4.2.0]oct-2-en-3-yl)vinyl)benzyl)-4-(3,4-dihydroxyphenyl)pyridin-1-ium]	≤ 0.06	≤0.06	–	–	0.5	0.13	–	–	> 64	0.5	2	2	≤ 0.06	4	1	≤ 0.06	16	2	–
